Reference: patent US6610648B2, “Malodor counteractant compositions” (Givaudan SA, priority 2000, dated 2003)
Where “and” joins values, the source holds several entries; their conditions need not be identical. Identical values can stand only once. Counter-ions that a name gives are not always drawn.

Tests used:
Design in all cases: species or system human
[1] = Synthetic axilla malodor on cotton pads, 10-member panel rating of malodor strength; conditions: for Class A + Malodor (strength of the axilla malodor, panel score): 0.4 g ethanolic solution with 10% (wt) test compound on malodor pad, 10-member panel after 3 hours; for Class A + Malodor (strength of the axilla malodor, panel score) / 50% DHF/50% Class A (strength of the axilla malodor, panel score): scale 5 overpowering to 1 not detectable; for 50% DHF/50% Class A (strength of the axilla malodor, panel score): test solution 5% (wt) DHF and 5% (wt) Class A compound, after 3 hours
Method: 100 μl of synthetic axilla malodor was placed onto cotton pads. 0.4 g of an ethanolic solution containing 10% (wt) of a test compound identified in Table 1 was placed on each axilla malodor treated cotton pad. Each pad was allowed to dry 15 for minutes, and then evaluated using a 10-member panel after 3 hours. The test cotton pads were randomized, and each panelist was asked to check a box that represented the strength of the axilla malodor using the following scale:
In this example, the MO effect of various mixtures of a Class A MOC compound and a Class B MOC compound (i.e., dihexyl fumarate (“DHF”) as disclosed in Kulka, U.S. Pat. No. 3,074,892) were evaluated using the same test and malodor evaluation procedures as set forth in Example 1. Each test sol ion contained 5% (wt) DHF and 5% (wt) of the Class A compound identified in Table 3. The MOC effect was evaluated as in Example 1.
Various mixtures of OMC (a Class A Compound) and a Class B compound (i.e., various cyclohexyl esters as disclosed in Schleppnik '221) as identified in Table 4 below were made according to the procedure set forth in Example 1. The MOC of each mixture was evaluated using the procedure set forth in Example 1.

[2] = MOC of sweat malodor on fabric swatches; conditions: Table 6
Method: The following fabric treatment solutions were prepared:
1. A solution of ethanol and Cremophor (a hydrogenated ethoxylated castor oil marketed by BASF Corp., Mount Olive, N.J.) containing 10% (wt) of dihexyl fumarate (DHF).
2. A solution of ethanol and Cremophor containing 10% (wt) of OMC.
3. A solution of ethanol and Cremophor containing 5% (wt) of DHF+5% (wt) OMC.
Five (5) fabric swatches were prepared, and labeled A-E. Swatch A was designated as the control swatch with no malodor. 100 μl of sweat malodor was placed in the middle of swatches B-E. Swatch B was designated as the control swatch for the malodor. The swatches were allowed to equilibrate with the malodor for 20 minutes. Onto swatches C-E, the following solutions were sprayed:
The malodor intensity on the cotton swatches was evaluated as follows:
The malodor intensity on swatch B (Malodor Control) was identified as a 5 (overpoweringly strong) on the scale of 1-5 set forth below at every time point, and the rest of swatches were evaluated based on that standard.

[3] = Tobacco smoke malodor on cotton fabric, 20-member panel; conditions: 0.4 gram of 5% (wt) OMC in ethanol on smoke-treated cotton fabric; average of 20 panelists; three hours; scale 1-5
Method: (§1) The ability of OMC to reduce the malodor intensity of tobacco smoke, onion, and garlic solutions on cotton fabric was determined.
(§2) Cotton cloth pads were evaluated by 20 panelists to determine how well OMC reduced the perceived odor of tobacco smoke, onion, and garlic solutions on cotton fabric.
(§3) The effect of the test solutions on the garlic or onion odors were evaluated by asking a 20-member panel to rate the intensity of the malodor present on the controls and on the treated fabrics using a scale of 1-5 as shown below three hours after the preparation of each sample. The data are average values from the scores by each of the 20 panelists.
Samples were prepared fresh before each evaluation. Clean pieces of fabric were treated with smoke by placing each fabric piece in a smoked filled environment for 10 minutes. Each piece of fabric was sprayed with 0.4 gram of the 5% (wt) OMC in ethanol test solution set forth above in the garlic and onion example. The treated fabric pieces were left to dry for 15 minutes, and then wrapped in foil.
Controls were prepared from a smoke-treated piece of cloth that was not sprayed with a test solution.
The fabric pieces were evaluated in the same way as described above in the onion and garlic example.

[4] = Onion malodor on cotton fabric, 20-member panel; conditions: 0.4 g of 5% OMC in ethanol on cotton pad with 2.5% (wt) onion solution; average of 20 panelists; three hours; scale 1-5
Method: as §1, §2
(§4) Samples were prepared fresh before each evaluation. A solution of 2.5% (wt) garlic and a solution of 2.5% (wt) onion were both made using 39C alcohol as the solvent. Briefly, 0.4 g of the garlic and onion solutions were each sprayed onto cotton towel pads (100% cotton, 5×5cm). 0.4 g of a test solution containing 5% OMC in ethanol were then sprayed on the onion and garlic-treated cotton pads. The pads were allowed to dry for 15-20 minutes under a fume hood. Each pad was then placed in a blind coded Petri-dish.
(§5) Controls were prepared from cotton pads, which were treated only with the garlic or onion solution (i.e., no OMC test solution).
as §3

[5] = Garlic malodor on cotton fabric, 20-member panel; conditions: 0.4 g of 5% OMC in ethanol on cotton pad with 2.5% (wt) garlic solution; average of 20 panelists; three hours; scale 1-5
Method: as §1, §2, §4, §5, §3

Structure (SMILES)	Class A + Malodor (strength of the axilla malodor, panel score) [1]	50% DHF/50% Class A (strength of the axilla malodor, panel score) [1]	further results
O=C(/C=C/c1ccccc1)OCCc1ccccc1 [PC, Phenylethylcinnamate]	2.2	–	–
CCCCCCOC(=O)/C=C/C(=O)OCCCCCC [Dihexyl Fumarate, reference compound]	–	–	10% test (Compound B Alone) malodor score ([1]; 10% Class B compound alone, procedure of Example 1, scale 1-5): 2.6; 5% OMC + 5% Compound B malodor score ([1]; mixture 5% OMC + 5% Class B compound, procedure of Example 1, scale 1-5): 2.3; MOC effect in words, compound alone [2]: had a MOC effect
COc1ccc(OC)c(/C=C/C(=O)OCCC(C)CCC=C(C)C)c1 (centres unmarked) [GR 85-3260]	3.5	2.9	–
CCCCCCCCCCOC(=O)/C=C/c1ccccc1 [GR 85 3428]	2.8	3.3	–
CCCCC(C)COC(=O)c1cc2ccccc2oc1=O (centres unmarked) [GR 85-6924]	2.9	2.5	–
C/C(=C\c1ccccc1O)C(=O)OCCC(C)CCc1ccccc1 (centres unmarked) [GR 85-1407]	3.4	3.0	–
CCCCC(CC)COC(=O)/C=C/c1ccccc1 (centres unmarked) [GR 85-3429]	3.3	2.8	–
CCCCC(C)COC(=O)C1=Cc2ccc(OC)cc2CC1 (centres unmarked) [GR 85-6495]	2.8	3.0	–
CC(C)=CCCC(C)CCOC(=O)/C(C#N)=C/c1ccccc1O (centres unmarked) [GR 85-2661]	2.9	2.4	–
CCCCC(CC)COC(=O)/C=C/c1ccc(OC)cc1 (centres unmarked) [OMC, Octyl methoxy cinnamate]	2.6	2.3	10% OMC (Alone) malodor score ([1]; 10% OMC alone, run beside the Compound B of that line, scale 1-5): 3.1 and 2.6 and 3.0; MOC effect in words, mixture of Class A and Class B compound versus alone ([1]; axilla malodor test pads, Tables 3 and 4): acts at least additively with the Class B compounds; MOC effect in words, compound alone [2]: had a MOC effect; Malodor intensity, Smoke [3]: 1.8; Malodor intensity, Onion [4]: 2.7; Malodor intensity, Garlic [5]: 2.6
COC(=O)/C(C#N)=C/c1ccccc1 [GR 85-3427]	3.0	3.3	–
CC(C)=CCCC(C)CCOC(=O)/C=C/c1ccccc1O[Si](C)(C)C (centres unmarked) [GR 85-3565]	2.7	3.1	–
CC(C)=CCCC(C)CCOC(=O)/C=C/c1ccccc1O (centres unmarked) [GR 85-2280]	2.9	3.1	–
